We go through two molecules from paper PMC11490619, “Discovery of Trypanosoma brucei inhibitors enabled by a unified synthesis of diverse sulfonyl fluorides” (Communications Chemistry, 2024).

In test [1] the test system is T1, Trypanosoma brucei brucei bloodstream forms.
T1 construct: 427 single marker, bloodstream form
Nature of the test: microbe, parasite or virus in culture. The following applies: initial screen, n = 1, 0.5% DMSO. Details: Resazurin viability of bloodstream form parasites, fluorescence 560/590 nm, dose-response, initial screen n = 1. The method, then: Cell viability assays were carried out in 96 well plates with 200 µL of culture per well as described previously. For this study we used bloodstream forms (BSF) of Trypanosoma brucei brucei strain 427 single marker. Axenic cultures of parasites were maintained at the logarithmic phase of cell proliferation (density below 2 ×10^6 parasites/mL) by successive passages in HMI-11 media supplemented with 10% heat inactivated foetal calf serum and 2.5 mg/L geneticin (Ge418) at 37°C under an atmosphere of 5% CO2. Parasites were seeded at 5 ×10^3 cells/mL and incubated with drug for 66 hours. The plate included wells containing the positive control pentamidine (100 nM) and the negative control of 0.5% DMSO. After 66 hours, 10 µL of 1.1 mg/mL Resazurin sodium salt was added in PBS and incubated for a further 6 hours. Plates were then read on a plate reader using excitation/emission 560/590 nm. EC50 values and errors were calculated using a sigmoidal dose response fitting algorithm. The initial screen was performed at n = 1 with follow-up screen of hits n = 4 technical replicates. The set of diverse sulfonyl fluoride probes was screened against Trypanosoma brucei brucei bloodstream forms in 96-well plate format (final concentrations: 0.1–100 μM in 0.5% dimethyl sulfoxide (DMSO); n = 1) (Fig. 3b). […]

In test [2] the target is T2, lyso-phospholipase (D6XM23) (Trypanosoma brucei, UniProt D6XM23).
T2 construct: gene Tb08.11J15.160; native protein in parasite lysate, about 30 kDa
T2 sequence (D6XM23 entry or part of it): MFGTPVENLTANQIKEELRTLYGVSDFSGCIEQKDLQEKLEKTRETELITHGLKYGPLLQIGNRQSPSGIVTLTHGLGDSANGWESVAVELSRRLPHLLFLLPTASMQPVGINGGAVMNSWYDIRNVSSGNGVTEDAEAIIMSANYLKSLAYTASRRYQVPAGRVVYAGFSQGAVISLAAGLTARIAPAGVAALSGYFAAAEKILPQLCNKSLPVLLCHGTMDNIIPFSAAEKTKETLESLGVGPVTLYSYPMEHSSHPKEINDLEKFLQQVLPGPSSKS
Briefly: C-1alk click biotin pulldown, LFQ LC-MS/MS. The format is biochemical. Particulars: covalent; labelled compound; parasite lysate; 1.5 uM C-1alk, 1 h, 25 C.

For test [3], the target named is T3, prolyl endo-/oligo-peptidase S9 (Q38AG2) (Trypanosoma brucei, UniProt Q38AG2).
T3 construct: gene Tb10.6k15.2520; native protein in parasite lysate
T3 sequence (Q38AG2 entry or part of it, one chain of several): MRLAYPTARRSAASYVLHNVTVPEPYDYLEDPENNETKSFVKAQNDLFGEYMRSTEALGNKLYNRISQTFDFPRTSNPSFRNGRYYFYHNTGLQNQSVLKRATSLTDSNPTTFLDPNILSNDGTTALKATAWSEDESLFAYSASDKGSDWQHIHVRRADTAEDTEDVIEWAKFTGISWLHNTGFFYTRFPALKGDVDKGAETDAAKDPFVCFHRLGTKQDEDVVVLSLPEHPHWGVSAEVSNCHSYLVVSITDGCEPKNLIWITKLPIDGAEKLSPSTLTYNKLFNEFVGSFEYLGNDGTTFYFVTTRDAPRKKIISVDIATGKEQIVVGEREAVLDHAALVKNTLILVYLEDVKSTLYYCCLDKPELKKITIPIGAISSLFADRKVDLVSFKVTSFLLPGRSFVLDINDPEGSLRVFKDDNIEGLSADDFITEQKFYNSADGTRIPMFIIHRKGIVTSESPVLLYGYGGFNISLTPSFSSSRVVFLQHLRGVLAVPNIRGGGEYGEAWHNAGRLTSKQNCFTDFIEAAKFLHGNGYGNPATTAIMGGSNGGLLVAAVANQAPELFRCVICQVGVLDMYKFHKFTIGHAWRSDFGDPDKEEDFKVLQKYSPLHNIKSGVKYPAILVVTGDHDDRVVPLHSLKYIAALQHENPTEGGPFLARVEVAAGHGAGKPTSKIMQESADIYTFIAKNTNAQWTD
Nature of the test: C-1alk click biotin pulldown, LFQ LC-MS/MS. Type of test: biochemical. The following applies: covalent; labelled compound; parasite lysate; 1.5 uM C-1alk, 1 h, 25 C.

Test [4] concerns the target T4, T. brucei glycerol kinase (Q38DF0) (Trypanosoma brucei, UniProt Q38DF0).
T4 construct: gene Tb09.211.3570; native protein in parasite lysate
Nature of the test: modified-peptide LC-MS/MS after click to cleavable biotin-azide. Particulars: covalent; labelled compound; parasite lysate; site S137, T138 or Y139. The format is binding.

T4 sequence (Q38DF0 entry or part of it): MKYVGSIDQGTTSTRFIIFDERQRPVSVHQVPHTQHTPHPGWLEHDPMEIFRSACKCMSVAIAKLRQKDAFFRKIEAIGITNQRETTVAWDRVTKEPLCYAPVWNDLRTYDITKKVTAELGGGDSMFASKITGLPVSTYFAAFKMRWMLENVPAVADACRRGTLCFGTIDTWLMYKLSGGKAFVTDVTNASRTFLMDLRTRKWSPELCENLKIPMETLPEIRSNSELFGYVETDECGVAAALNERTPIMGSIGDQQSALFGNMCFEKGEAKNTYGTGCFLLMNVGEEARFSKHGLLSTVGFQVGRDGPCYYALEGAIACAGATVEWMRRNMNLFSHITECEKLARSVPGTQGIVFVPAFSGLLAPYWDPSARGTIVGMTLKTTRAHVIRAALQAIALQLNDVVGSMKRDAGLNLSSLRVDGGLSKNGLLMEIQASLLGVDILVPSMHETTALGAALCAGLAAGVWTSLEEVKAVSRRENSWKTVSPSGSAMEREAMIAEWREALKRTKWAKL

With `CC(C)(C)OC(=O)N1CCCC1c1ccc(S(=O)(=O)F)cn1` (stereo not shown) [C-1], the EC50 in test [1] was 0.33 µM.

Regarding `C#CCOC(=O)N1CCCC1c1ccc(S(=O)(=O)F)cn1` (stereo not shown) [C-1alk], the “C-1alk click biotin pulldown, LFQ LC-MS/MS” value in test [2] is “Lyso-phospholipase emerged as the sole common hit labelled by both C-1alk and FP-biotin”; in test [3], “prolyl endo-/oligo-peptidase S9 (Q38AG2), which had been previously enriched with our C-1alk probe”. Further, the “modified-peptide LC-MS/MS after click to cleavable biotin-azide” value in test [4] is given as “identify peptides matching the expected mass shift for T. brucei glycerol kinase (Q38DF0)”.

By EC50 is commonly meant the concentration that produces a half-maximal response. High values mean weaker potency, low ones greater potency.
